Where “and” joins values, the source holds several entries; their conditions need not be identical. Equal values may be shown once. Inconclusive results and toxic doses are left out. No stated cut-off is given here; in the data, active means T/C of 150% or more; inactive means T/C below 125%. Square brackets hold non-standard residues; d marks the D form. Peptide text beside a SMILES is read from it. * marks the point of attachment. ξ: configuration not given here. Cbz = O=C(OCc1ccccc1)*; ξP = O=C(O)C1CCCN1
Tested on: L1210 leukemia ip in BDF1 mice, survival T/C
Test: NCI In Vivo Anticancer Drug Screen. Data for tumor model L1210 Leukemia (intraperitoneal) in B6D2F1 (BDF1) mice
Settings: endpoint: mean survival time, higher = longer survival
Summary of the method: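 Read-out is survival time, reported as the treated-group measurement over the vehicle-control measurement.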

[1] = dose: 50.0 mg/kg/injection, schedule: Q01DX009 (ip), vehicle: saline
[2] = dose: 50.0 mg/kg/injection, schedule: Q04DX003 (ip), vehicle: saline
[3] = dose: 100.0 mg/kg/injection, schedule: Q01DX009 (ip), vehicle: saline
[4] = dose: 100.0 mg/kg/injection, schedule: Q04DX003 (ip), vehicle: saline
[5] = dose: 200.0 mg/kg/injection, schedule: Q04DX003 (ip), vehicle: saline
[6] = dose: 25.0 mg/kg/injection, schedule: Q01DX009 (ip), vehicle: saline
[7] = dose: 100.0 mg/kg/injection, schedule: Q01DX009 (ip), vehicle: Klucel (hydroxypropylcellulose) (HPC)
[8] = dose: 200.0 mg/kg/injection, schedule: Q01DX009 (ip), vehicle: Klucel (hydroxypropylcellulose) (HPC)
[9] = dose: 400.0 mg/kg/injection, schedule: Q01DX009 (ip), vehicle: Klucel (hydroxypropylcellulose) (HPC)
[10] = dose: 100.0 mg/kg/injection, schedule: Q01DX001 (ip), vehicle: saline with Tween-80
[11] = dose: 100.0 mg/kg/injection, schedule: Q04DX003 (ip), vehicle: saline with Tween-80
[12] = dose: 200.0 mg/kg/injection, schedule: Q04DX003 (ip), vehicle: saline with Tween-80
[13] = dose: 400.0 mg/kg/injection, schedule: Q04DX003 (ip), vehicle: saline with Tween-80
[14] = dose: 100.0 mg/kg/injection, schedule: Q01DX001 (ip), vehicle: saline
[15] = dose: 100.0 mg/kg/injection, schedule: Q01DX009 (ip), vehicle: saline with Tween-80
[16] = dose: 200.0 mg/kg/injection, schedule: Q01DX009 (ip), vehicle: saline with Tween-80
[17] = dose: 400.0 mg/kg/injection, schedule: Q01DX009 (ip), vehicle: saline with Tween-80

Measured: T/C

O=C1C=C(c2ccccc2)C(=O)C=C1c1ccccc1
inactive: dose: 6.25 mg/kg/injection, schedule: Q01DX009 (ip), vehicle: water 94 % of control | dose: 12.5 mg/kg/injection, schedule: Q01DX009 (ip), vehicle: water 86 % of control | dose: 25.0 mg/kg/injection, schedule: Q01DX009 (ip), vehicle: water 103 % of control | dose: 25.0 mg/kg/injection, schedule: Q04DX003 (ip), vehicle: gum acacia 94 % of control | dose: 50.0 mg/kg/injection, schedule: Q01DX009 (ip), vehicle: water 86 % of control | dose: 50.0 mg/kg/injection, schedule: Q04DX003 (ip), vehicle: gum acacia 94 % of control | dose: 100.0 mg/kg/injection, schedule: Q04DX003 (ip), vehicle: gum acacia 105 % of control

Nc1nc2ccccc2nc1N
inactive: [1] 96 % of control | [2] 105 % of control | [3] 104 % of control | [4] 101 % of control | [5] 108 % of control

Nc1nc(N)c(-c2ccc(Cl)c(Cl)c2)c(COc2cccc(CNC(=O)c3cccc(S(=O)(=O)F)c3)c2)n1
inactive: [6] 110 % of control | [1] 102 % of control | [3] 98 % of control | dose: 200.0 mg/kg/injection, schedule: Q01DX009 (ip), vehicle: saline 102 % of control | dose: 400.0 mg/kg/injection, schedule: Q01DX009 (ip), vehicle: saline 105 % of control

O=S(=O)(CCCBr)NC1CCCCC1
inactive: [7] 96 % of control | [8] 91 % of control | [9] 93 % of control

CC(C)(C)C(=O)NCc1ccccc1
inactive: [10] 100 % of control | dose: 200.0 mg/kg/injection, schedule: Q01DX001 (ip), vehicle: saline with Tween-80 96 % of control | dose: 400.0 mg/kg/injection, schedule: Q01DX001 (ip), vehicle: saline with Tween-80 96 % of control

CCC(C)N1C(=O)CCC1=O (stereo unspecified)
inactive: dose: 150.0 mg/kg/injection, schedule: Q01DX001 (ip), vehicle: saline 101 % of control | dose: 300.0 mg/kg/injection, schedule: Q01DX001 (ip), vehicle: saline 101 % of control | dose: 600.0 mg/kg/injection, schedule: Q01DX001 (ip), vehicle: saline 101 % of control

Nc1c(Br)cc(Br)c2ccccc12
inactive: dose: 100.0 mg/kg/injection, schedule: Q01DX009 (ip), vehicle: acetone 93 % of control | [11] 97 % of control | dose: 200.0 mg/kg/injection, schedule: Q01DX009 (ip), vehicle: acetone 91 % of control | [12] 92 % of control | dose: 400.0 mg/kg/injection, schedule: Q01DX009 (ip), vehicle: acetone 93 % of control | [13] 97 % of control

COC(=O)c1cn[nH]c1N1CC[N+](CCCl)=N1
inactive: [6] 97 % of control | dose: 25.0 mg/kg/injection, schedule: Q04DX003 (ip), vehicle: saline 102 % of control | [1] 106 % of control | [2] 104 % of control | [14] 100 % of control | [4] 104 % of control

COc1ccc(OC)c(NC(=O)Nc2cc(C(F)(F)F)ccc2Cl)c1
inactive: [7] 104 % of control | [9] 91 % of control

Cc1cccc(NCc2ccc(Cl)cc2Cl)c1
inactive: dose: 50.0 mg/kg/injection, schedule: Q01DX009 (ip), vehicle: saline with Tween-80 106 % of control | [15] 103 % of control | [11] 93 % of control and 88 % of control | [16] 98 % of control | [12] 95 % of control | [13] 96 % of control and 101 % of control

O=c1cc(Cl)c2ccccc2[nH]1
inactive: [15] 95 % of control | [11] 103 % of control | [16] 91 % of control | [12] 94 % of control | [17] 100 % of control | [13] 103 % of control

COC(=O)CCC(=O)Nc1ccccc1C(C)=O
inactive: [11] 104 % of control | [12] 93 % of control | [13] 93 % of control

CCCCCCCCCCCCCCCCCCNC(=O)Nc1nccs1
inactive: [7] 96 % of control | dose: 150.0 mg/kg/injection, schedule: Q01DX009 (ip), vehicle: Klucel (hydroxypropylcellulose) (HPC) 86 % of control | dose: 200.0 mg/kg/injection, schedule: Q04DX002 (ip), vehicle: Klucel (hydroxypropylcellulose) (HPC) 94 % of control | dose: 225.0 mg/kg/injection, schedule: Q01DX009 (ip), vehicle: Klucel (hydroxypropylcellulose) (HPC) 91 % of control | dose: 335.0 mg/kg/injection, schedule: Q01DX009 (ip), vehicle: Klucel (hydroxypropylcellulose) (HPC) 96 % of control | dose: 400.0 mg/kg/injection, schedule: Q04DX002 (ip), vehicle: Klucel (hydroxypropylcellulose) (HPC) 87 % of control

COC(=O)C1CCCN1C(=O)CNC(=O)OCc1ccccc1 (stereo not drawn) (Cbz-Gly-[ξP]-OMe)
inactive: [4] 97 % of control | [5] 101 % of control | dose: 400.0 mg/kg/injection, schedule: Q04DX003 (ip), vehicle: saline 95 % of control

COC(=O)CNC(=O)C(Cc1ccc(OCc2ccccc2)cc1)NC=O (stereo unspecified)
inactive: [15] 89 % of control | [11] 105 % of control | [16] 90 % of control | [12] 100 % of control | [17] 90 % of control | [13] 102 % of control

CN(Cc1ccccc1Cl)C(=S)NC1CCCCC1
inactive: [7] 92 % of control | [8] 93 % of control | [9] 93 % of control

CCCCCCCCCCCCCCCCn1/c(=N/N=C/c2ccccc2S(=O)(=O)O)sc2ccccc21
inactive: [7] 106 % of control | dose: 100.0 mg/kg/injection, schedule: Q04DX003 (ip), vehicle: Klucel (hydroxypropylcellulose) (HPC) 113 % of control | [8] 112 % of control | dose: 200.0 mg/kg/injection, schedule: Q04DX003 (ip), vehicle: Klucel (hydroxypropylcellulose) (HPC) 106 % of control | [9] 105 % of control | dose: 400.0 mg/kg/injection, schedule: Q04DX003 (ip), vehicle: Klucel (hydroxypropylcellulose) (HPC) 116 % of control

CSc1ccc(C(=O)Nc2c(N)ncnc2N)cc1
inactive: dose: 25.0 mg/kg/injection, schedule: Q01DX001 (ip), vehicle: saline 97 % of control | dose: 50.0 mg/kg/injection, schedule: Q01DX001 (ip), vehicle: saline 87 % of control | [10] 100 % of control | [14] 88 % of control

O=C(/C=C/c1ccccc1)NC(=S)NC1CCCCC1
inactive: dose: 50.0 mg/kg/injection, schedule: Q01DX009 (ip), vehicle: carboxymethylcellulose (CMC) 101 % of control and 102 % of control | dose: 50.0 mg/kg/injection, schedule: Q04DX003 (ip), vehicle: carboxymethylcellulose (CMC) 103 % of control | dose: 100.0 mg/kg/injection, schedule: Q01DX009 (ip), vehicle: carboxymethylcellulose (CMC) 97 % of control and 90 % of control | dose: 100.0 mg/kg/injection, schedule: Q04DX002 (ip), vehicle: carboxymethylcellulose (CMC) 100 % of control and 106 % of control | dose: 100.0 mg/kg/injection, schedule: Q04DX003 (ip), vehicle: carboxymethylcellulose (CMC) 96 % of control | dose: 200.0 mg/kg/injection, schedule: Q01DX009 (ip), vehicle: carboxymethylcellulose (CMC) 93 % of control and 91 % of control | dose: 200.0 mg/kg/injection, schedule: Q04DX002 (ip), vehicle: carboxymethylcellulose (CMC) 103 % of control and 91 % of control | dose: 200.0 mg/kg/injection, schedule: Q04DX003 (ip), vehicle: carboxymethylcellulose (CMC) 96 % of control | dose: 400.0 mg/kg/injection, schedule: Q04DX002 (ip), vehicle: carboxymethylcellulose (CMC) 87 % of control

Cc1ccc([I+]c2ccc(C)c(C)c2C)c(C)c1C
inactive: dose: 2.5 mg/kg/injection, schedule: Q01DX001 (ip), vehicle: acetone 100 % of control | dose: 5.0 mg/kg/injection, schedule: Q01DX001 (ip), vehicle: acetone 102 % of control | dose: 10.0 mg/kg/injection, schedule: Q01DX001 (ip), vehicle: acetone 96 % of control | dose: 22.0 mg/kg/injection, schedule: Q01DX001 (ip), vehicle: acetone 103 % of control
